The source made the active and inactive calls. The rule behind the calls is not given here.

This is an account of results in PubChem BioAssay AID1259411 (Chemical Carcinogenesis Research Information System (CCRIS), 2018).

The data set relates to rodent carcinogenicity bioassays, tumor incidence. Nature of the data set: CCRIS carcinogenicity studies. Summed up: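 NCI-built, expert-reviewed records of carcinogenicity and related test outcomes (mutagenicity, tumor promotion/inhibition) compiled from published and report sources, historical span 1985-2011, not updated.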

`COC(N)=O`: the carcinogen call is “inactive; negative” (Species: MOUSE, Strain/Sex: B6C3F1/FEMALE, Route: GAVAGE, Dose: 0, 500, 1000 MG/KG IN DISTILLED WATER 5D/WK FOR 103 WK (STUDY DURATION: 105 WK), 1000 MG/KG IN DISTILLED WATER 5D/WK FOR, Dose: 0, 500, 1000 MG/KG IN DISTILLED WATER 5D/WK FOR 103 WK (STUDY DURATION: 105 WK), 1000 MG/KG IN DISTILLED WATER 5D/WK FOR); “inactive; negative” (Species: MOUSE, Strain/Sex: B6C3F1/MALE, Route: GAVAGE, Dose: 0, 500, 1000 MG/KG IN DISTILLED WATER 5D/WK FOR 103 WK (STUDY DURATION: 105 WK);1000 MG/KG IN DISTILLED WATER 5D/WK FOR, Dose: 0, 500, 1000 MG/KG IN DISTILLED WATER 5D/WK FOR 103 WK (STUDY DURATION: 105 WK);1000 MG/KG IN DISTILLED WATER 5D/WK FOR); “active; positive” (Species: RAT, Strain/Sex: F344/FEMALE, Route: GAVAGE, Dose: 0, 100, 200 MG/KG IN DISTILLED WATER 5D/WK FOR 103 WK (STUDY DURATION: 105 WK), 400 MG/KG IN DISTILLED WATER 5D/WK FOR 6, Dose: 0, 100, 200 MG/KG IN DISTILLED WATER 5D/WK FOR 103 WK (STUDY DURATION: 105 WK), 400 MG/KG IN DISTILLED WATER 5D/WK FOR 6, Tumor Site: Type of Lesion: LIVER: NEOPLASTIC NODULE, LIVER: NEOPLASTIC NODULE OR HEPATOCELLULAR CARCINOMA, LIVER: HEPATOCELLULAR CARCINOMA, Tumor Site: Type of Lesion: LIVER: NEOPLASTIC NODULE, LIVER: NEOPLASTIC NODULE OR HEPATOCELLULAR CARCINOMA, LIVER: HEPATOCELLULAR CARCINOMA); “active; positive” (Species: RAT, Strain/Sex: F344/MALE, Route: GAVAGE, Dose: 0, 100, 200 MG/KG IN DISTILLED WATER 5D/WK FOR 103 WK (STUDY DURATION: 105 WK), 400 MG/KG IN DISTILLED WATER 5D/WK FOR 6, Dose: 0, 100, 200 MG/KG IN DISTILLED WATER 5D/WK FOR 103 WK (STUDY DURATION: 105 WK), 400 MG/KG IN DISTILLED WATER 5D/WK FOR 6, Tumor Site: Type of Lesion: LIVER: NEOPLASTIC NODULES, LIVER: HEPATOCELLULAR CARCINOMA).
As to `Cc1cc(O)c(C(C)(C)C)cc1Sc1cc(C(C)(C)C)c(O)cc1C`, the carcinogen call by setting is: (Species: MOUSE, Strain/Sex: B6C3F1/FEMALE, Route: ORAL, Dose: 0, 250, 500, 1000 PPM IN DIET FOR 2 YR (STUDY DURATION: 104 WK), Dose: 0, 250, 500, 1000 PPM IN DIET FOR 2 YR (STUDY DURATION: 104 WK)) “inactive; negative”; (Species: MOUSE, Strain/Sex: B6C3F1/MALE, Route: ORAL, Dose: 0, 250, 500, 1000 PPM IN DIET FOR 2 YR (STUDY DURATION: 104 WK), Dose: 0, 250, 500, 1000 PPM IN DIET FOR 2 YR (STUDY DURATION: 104 WK)) “inactive; negative”; (Species: RAT, Strain/Sex: F344/FEMALE, Route: ORAL, Dose: 0, 500, 1000, 2500 PPM IN DIET FOR 2 YR (STUDY DURATION: 104 WK), Dose: 0, 500, 1000, 2500 PPM IN DIET FOR 2 YR (STUDY DURATION: 104 WK)) “inactive; negative”; (Species: RAT, Strain/Sex: F344/MALE, Route: ORAL, Dose: 0, 500, 1000, 2500 PPM IN DIET FOR 2 YR (STUDY DURATION: 104 WK), Dose: 0, 500, 1000, 2500 PPM IN DIET FOR 2 YR (STUDY DURATION: 104 WK)) “inactive; negative”.
As to `FC(F)=C(F)F`, the carcinogen call (Species: MOUSE, Strain/Sex: B6C3F1/FEMALE, Route: INHALATION, Dose: 0, 312, 625, 1250 PPM 6 HR/D 5 D/WK FOR 95-96 WK (STUDY DURATION: 96 WK), Dose: 0, 312, 625, 1250 PPM 6 HR/D 5 D/WK FOR 95-96 WK (STUDY DURATION: 96 WK), Tumor Site: Type of Lesion: LIVER: HEMANGIOMA, HEMANGIOSARCOMA, HEPATOCELLULAR CARCINOMA, HEMATOPOIETIC SYSTEM: HISTIOCYTIC SARCOMA) was “active; positive”; the carcinogen call (Species: MOUSE, Strain/Sex: B6C3F1/MALE, Route: INHALATION, Dose: 0, 312, 625, 1250 PPM 6 HR/D 5 D/WK FOR 95-96 WK (STUDY DURATION: 96 WK), Dose: 0, 312, 625, 1250 PPM 6 HR/D 5 D/WK FOR 95-96 WK (STUDY DURATION: 96 WK), Tumor Site: Type of Lesion: LIVER: HEMANGIOMA, HEMANGIOSARCOMA, HEPATOCELLULAR CARCINOMA, HEMATOPOIETIC SYSTEM: HISTIOCYTIC SARCOMA) was “active; positive”; the carcinogen call (Species: RAT, Strain/Sex: F344/FEMALE, Route: INHALATION, Dose: 0, 312, 625, 1250 PPM 6 HR/D 5 D/WK FOR 104 WK (STUDY DURATION: 106 WK), Dose: 0, 312, 625, 1250 PPM 6 HR/D 5 D/WK FOR 104 WK (STUDY DURATION: 106 WK), Tumor Site: Type of Lesion: KIDNEY(RENAL TUBULE): ADENOMA, ADENOMA OR CARCINOMA, LIVER: HEMANGIOSARCOMA, HEPATOCELLULAR ADENOMA, HEPATOCELLULAR CARC) was “active; positive”; the carcinogen call (Species: RAT, Strain/Sex: F344/MALE, Route: INHALATION, Dose: 0, 156, 312, 625 PPM 6 HR/D 5 D/WK FOR 104 WK (STUDY DURATION: 106 WK), Dose: 0, 156, 312, 625 PPM 6 HR/D 5 D/WK FOR 104 WK (STUDY DURATION: 106 WK), Tumor Site: Type of Lesion: KIDNEY(RENAL TUBULE): ADENOMA, LIVER: HEPATOCELLULAR CARCINOMA, HEPATOCELLULAR ADENOMA OR CARCINOMA) was “active; positive”.
As for `N[C@@H](CC(=O)O)C(=O)O`, the carcinogen call runs as follows: (Species: RAT, Strain/Sex: F344/FEMALE, Route: ORAL, Dose: 0, 2.5, 5% IN DRINKING WATER FOR 100 WK (STUDY DURATION: 100 WK), Dose: 0, 2.5, 5% IN DRINKING WATER FOR 100 WK (STUDY DURATION: 100 WK)) “inactive; negative”; (Species: RAT, Strain/Sex: F344/MALE, Route: ORAL, Dose: 0, 2.5, 5% IN DRINKING WATER FOR 100 WK (STUDY DURATION: 100 WK), Dose: 0, 2.5, 5% IN DRINKING WATER FOR 100 WK (STUDY DURATION: 100 WK)) “inactive; negative”.
In the case of `C[C@@H]1O[C@@H]1Cl`, the carcinogen call (Species: MOUSE, Strain/Sex: ICR/FEMALE, Route: DERMAL, Dose: 10 MG IN 0.1 ML ACETONE 3/WK FOR LIFE, Tumor Site: Type of Lesion: INTEGUMENTARY SYSTEM (SKIN): PAPILLOMA, SQUAMOUS CELL CARCINOMA) is “active; positive”.
On to `CN(C)c1ccc(N=NS(=O)(=O)O)cc1`, for which the carcinogen call runs as follows: (Species: MOUSE, Strain/Sex: B6C3F1/FEMALE, Route: ORAL, Dose: 0, 0.05, 0.10% OF DIET, TWA, Dose: 0, 0.05, 0.10% OF DIET, TWA) “inactive; negative”; (Species: MOUSE, Strain/Sex: B6C3F1/MALE, Route: ORAL, Dose: 0, 0.10, 0.19% OF DIET, TWA, Dose: 0, 0.10, 0.19% OF DIET, TWA) “inactive; negative”; (Species: RAT, Strain/Sex: F344/FEMALE, Route: ORAL, Dose: 0, 0.05, 0.10% OF DIET, TWA, Dose: 0, 0.05, 0.10% OF DIET, TWA) “inactive; negative”; (Species: RAT, Strain/Sex: F344/MALE, Route: ORAL, Dose: 0, 0.05, 0.10% OF DIET, TWA, Dose: 0, 0.05, 0.10% OF DIET, TWA) “inactive; negative”.
As to `ClCc1cccnc1`, the carcinogen call runs as follows: (Species: MOUSE, Strain/Sex: B6C3F1/FEMALE, Route: GAVAGE, Dose: 0, 100, 200 MG/KG, Dose: 0, 100, 200 MG/KG, Tumor Site: Type of Lesion: STOMACH: SQUAMOUS CELL PAPILLOMA, CARCINOMA) “active; positive”; (Species: MOUSE, Strain/Sex: B6C3F1/MALE, Route: GAVAGE, Dose: 0, 100, 200 MG/KG, Dose: 0, 100, 200 MG/KG, Tumor Site: Type of Lesion: STOMACH: SQUAMOUS CELL PAPILLOMA, CARCINOMA) “active; positive”; (Species: RAT, Strain/Sex: F344/FEMALE, Route: GAVAGE, Dose: 0, 75, 150 MG/KG FOR 83 WK (STUDY DURATION: 104 WK), Dose: 0, 75, 150 MG/KG FOR 83 WK (STUDY DURATION: 104 WK), Tumor Site: Type of Lesion: FORESTOMACH: SQUAMOUS CELL PAPILLOMA) “equivocal”; (Species: RAT, Strain/Sex: F344/MALE, Route: GAVAGE, Dose: 0, 75, 150 MG/KG, Dose: 0, 75, 150 MG/KG, Tumor Site: Type of Lesion: STOMACH: SQUAMOUS CELL PAPILLOMA OR CARCINOMA) “active; positive”.
